The data set can be described thus: Dynamic vapor sorption (DVS) analysis. It counts as physicochemical.

The structures appear in SMILES notation. Counter-ions that a name gives are not always drawn.

`CCCCCCCCC/C(=C\C1=C(C)C(=O)C(OC)=C(OC)C1=O)C(=O)O` [Compound 1 calcium salt]: the “maximum water adsorption (DVS)” value (at 82% RH) is on record as “about 1.52%”. Moreover, the “water retained at the end of the desorption branch (DVS)” value (end of desorption) was 0.19%. The “crystalline form of post-DVS sample (XRPD) versus pre-DVS sample” value (subsequent XRPD analysis after DVS) is on record as “maintained the same crystalline form”.

Values taken from patent US20260108483A1, “METHODS AND COMPOSITIONS FOR PREVENTING THE PROGRESSION OF DIABETIC RETINOPATHY AND RELATED CONDITIONS” (Opus Genetics, Inc., priority 2023, published 2026).
